In article PMC10879502, “Linking ATP and allosteric sites to achieve superadditive binding with bivalent EGFR kinase inhibitors” (Communications Chemistry, 2024):

Legend:
[1] = target: T1, MYLK2 (Homo sapiens, UniProt Q9H1R3); experiment: KINOMEscan; type: binding; conditions: 1 μM
T1 construct: purchased Eurofins DiscoverX Corporation

[2] = target: EGFR(G719C) (Homo sapiens, UniProt P00533, G719C); experiment: KINOMEscan; type: binding; conditions: 1 μM
[3] = system: EGFR phosphorylation (pY1068) in H3255GR (LRTM) cells; experiment: Western blot; type: cell-based, human; conditions: 6 h
Experimental: (§1) H1975, H3255, H3255GR and HCC827 lung adenocarcinoma cells (obtained from Dr. Pasi Jänne in Dana-Farber Cancer Institute, 2022) were cultured in RPMI 1640 media (Corning, 1004-CV) supplemented with 10% FBS (Tissue Culture Biologicals, 35-010-CV) and 1% penicillin-streptomycin (P/S, Corning, 30-002-CI). All cell lines were tested negative for Mycoplasma using Myco-Sniff-Rapid™ Mycoplasma Luciferase Detection Kit Plus PCR Primer Set (MP biomedicals, 0930504-CF) and were passaged and/or used for no longer than 4 weeks for all experiments H1975 and HCC-827 cells were seeded in 6-well plates with 400,000 cells per well and incubated overnight. H3255 and H3255GR cells were seeded in 12-well plates with 200,000 cells per well and were grown to confluency after 48 h. Culture medium was removed, cells washed with PBS, and lysed with lysis buffer containing 5 M NaCl, 1 M TRIS pH 8.0, 10% SDS, 10% Triton X-100 and a tablet of protease and phosphatase inhibitor. Protein lysate concentration was analyzed using Pierce BCA kit (ThermoFisher, 23225). Protein samples (10 µg) were resolved on hand-cast Criterion Tris-HCl protein gels. Primary antibodies used; phospho-EGFR (Tyr1068; #2234, 1:1,000), EGFR (#4267; 1:1,000), phospho-AKT (Ser473; #4060, 1:1,000), AKT (#9272, 1:1,000), phospho-ERK1/2 (Thr202/Tyr204; #4370, 1:1,000), and ERK1/2 (#4695, 1:1,000) antibodies; were purchased from Cell Signaling Technology. Secondary Goat anti-rabbit IgG starbright blue 700 (Biorad, 64484700) and Anti-tubulin hFAB Rhodamine Tubulin (Bio-Rad, 64512248). Western blots were visualized with the ChemiDoc MP imager (Bio-Rad) utilizing the Image Lab Touch Software (version 2.4.0.03). All Western blot images are representatives of at least 3 independent replicate experiments.

[4] = system: EGFR phosphorylation (pY1068) in HCC827 (exon19 delE746-A750) cells; experiment: Western blot; type: cell-based, human; conditions: HCC827, 6 h
Experimental: as §1

[5] = system: EGFR phosphorylation (pY1068) in H3255 (LR) cells; experiment: Western blot; type: cell-based, human; conditions: H3255, 6 h
Experimental: as §1

[6] = target: T2, BMPR2 (Homo sapiens, UniProt Q13873); experiment: KINOMEscan; type: binding; conditions: 1 μM
T2 construct: purchased Eurofins DiscoverX Corporation (KINOMEscan)

[7] = target: EGFR(L858R) (Homo sapiens, UniProt P00533, L858R); experiment: KINOMEscan; type: binding; conditions: 1 μM
[8] = target: PIM2 (Homo sapiens, UniProt Q9P1W9); experiment: KINOMEscan; type: binding; conditions: 1 μM
[9] = target: FLT3(D835H) (Homo sapiens, UniProt P36888, D835H); experiment: KINOMEscan; type: binding; conditions: 1 μM
[10] = target: ERK2 (Homo sapiens, UniProt P28482); experiment: KINOMEscan; type: binding; conditions: 1 μM
[11] = target: ERK3 (Homo sapiens, UniProt Q16659); experiment: KINOMEscan; type: binding; conditions: 1 μM
[12] = target: T3, LYN (Homo sapiens, UniProt P07948); experiment: KINOMEscan; type: binding; conditions: 1 μM
T3 construct: purchased Eurofins DiscoverX Corporation

[13] = target: T4, ABL1(T315I)-phosphorylated (Homo sapiens, UniProt P00519, T315I); experiment: KINOMEscan; type: binding; conditions: 1 μM
T4 construct: purchased Eurofins DiscoverX Corporation

[14] = target: PIK3CA (Homo sapiens, UniProt P42336); experiment: KINOMEscan; type: binding; conditions: 1 μM
[15] = target: AKT1 (Homo sapiens, UniProt P31749); experiment: KINOMEscan; type: binding; conditions: 1 μM
[16] = target: NEK6 (Homo sapiens, UniProt Q9HC98); experiment: KINOMEscan; type: binding; conditions: 1 μM
[17] = target: PRKX (Homo sapiens, UniProt P51817); experiment: KINOMEscan; type: binding; conditions: 1 μM
[18] = target: T5, DLK (Homo sapiens, UniProt Q12852); experiment: KINOMEscan; type: binding; conditions: 1 μM
T5 construct: purchased Eurofins DiscoverX Corporation

[19] = target: T6, MST2 (Homo sapiens, UniProt Q13188); experiment: KINOMEscan; type: binding; conditions: 1 μM
T6 construct: purchased Eurofins DiscoverX Corporation

[20] = target: T7, MYLK4 (Homo sapiens, UniProt Q86YV6); experiment: KINOMEscan; type: binding; conditions: 1 μM
T7 construct: purchased Eurofins DiscoverX Corporation

[21] = target: YANK1 (Homo sapiens, UniProt Q8WU08); experiment: KINOMEscan; type: binding; conditions: 1 μM
[22] = target: T8, GRK1 (Homo sapiens, UniProt Q15835); experiment: KINOMEscan; type: binding; conditions: 1 μM
T8 construct: purchased Eurofins DiscoverX Corporation

[23] = target: T9, ACVR1 (Homo sapiens, UniProt Q04771); experiment: KINOMEscan; type: binding; conditions: 1 μM
T9 construct: purchased Eurofins DiscoverX Corporation

[24] = target: SBK1 (Homo sapiens, UniProt Q52WX2); experiment: KINOMEscan; type: binding; conditions: 1 μM
[25] = target: T10, FYN (Homo sapiens, UniProt P06241); experiment: KINOMEscan; type: binding; conditions: 1 μM
T10 construct: purchased Eurofins DiscoverX Corporation

[26] = target: TYRO3 (Homo sapiens, UniProt Q06418); experiment: KINOMEscan; type: binding; conditions: 1 μM
[27] = target: T11, CDC2L2 (Homo sapiens, UniProt Q9UQ88); experiment: KINOMEscan; type: binding; conditions: 1 μM
T11 construct: purchased Eurofins DiscoverX Corporation (KINOMEscan)

[28] = target: YANK3 (Homo sapiens, UniProt Q86UX6); experiment: KINOMEscan; type: binding; conditions: 1 μM
[29] = target: YANK2 (Homo sapiens, UniProt Q9NY57); experiment: KINOMEscan; type: binding; conditions: 1 μM
[30] = target: PIK3CA(E545A) (Homo sapiens, UniProt P42336, E545A); experiment: KINOMEscan; type: binding; conditions: 1 μM
PIK3CA(E545A), sequence (P42336 whole entry E545A): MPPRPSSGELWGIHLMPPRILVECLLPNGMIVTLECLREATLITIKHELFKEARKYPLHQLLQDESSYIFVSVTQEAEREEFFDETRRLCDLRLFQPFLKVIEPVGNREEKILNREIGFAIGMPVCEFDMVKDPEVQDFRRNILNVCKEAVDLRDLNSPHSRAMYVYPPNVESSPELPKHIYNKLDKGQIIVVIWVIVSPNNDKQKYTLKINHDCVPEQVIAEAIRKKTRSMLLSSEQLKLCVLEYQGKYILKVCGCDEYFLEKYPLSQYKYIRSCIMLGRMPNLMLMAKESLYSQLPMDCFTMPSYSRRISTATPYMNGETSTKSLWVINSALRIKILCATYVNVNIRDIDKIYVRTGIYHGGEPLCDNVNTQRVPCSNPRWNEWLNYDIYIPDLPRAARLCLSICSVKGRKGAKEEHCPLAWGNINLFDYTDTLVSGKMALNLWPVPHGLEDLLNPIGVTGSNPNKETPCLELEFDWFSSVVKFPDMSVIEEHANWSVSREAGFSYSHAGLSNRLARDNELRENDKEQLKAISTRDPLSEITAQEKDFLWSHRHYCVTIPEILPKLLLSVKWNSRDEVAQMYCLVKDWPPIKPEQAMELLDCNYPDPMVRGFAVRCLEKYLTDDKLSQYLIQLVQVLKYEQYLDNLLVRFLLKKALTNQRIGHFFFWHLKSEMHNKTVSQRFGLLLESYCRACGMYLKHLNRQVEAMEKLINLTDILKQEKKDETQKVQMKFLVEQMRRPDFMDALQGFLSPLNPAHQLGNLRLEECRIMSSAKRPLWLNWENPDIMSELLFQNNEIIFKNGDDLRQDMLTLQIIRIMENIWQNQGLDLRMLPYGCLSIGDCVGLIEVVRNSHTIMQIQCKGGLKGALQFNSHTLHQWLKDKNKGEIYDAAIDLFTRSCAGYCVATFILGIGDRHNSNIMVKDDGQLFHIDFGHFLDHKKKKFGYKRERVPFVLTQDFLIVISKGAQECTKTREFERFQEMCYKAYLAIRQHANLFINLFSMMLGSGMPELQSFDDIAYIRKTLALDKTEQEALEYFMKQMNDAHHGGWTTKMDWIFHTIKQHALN

TYRO3, sequence (Q06418 41-890): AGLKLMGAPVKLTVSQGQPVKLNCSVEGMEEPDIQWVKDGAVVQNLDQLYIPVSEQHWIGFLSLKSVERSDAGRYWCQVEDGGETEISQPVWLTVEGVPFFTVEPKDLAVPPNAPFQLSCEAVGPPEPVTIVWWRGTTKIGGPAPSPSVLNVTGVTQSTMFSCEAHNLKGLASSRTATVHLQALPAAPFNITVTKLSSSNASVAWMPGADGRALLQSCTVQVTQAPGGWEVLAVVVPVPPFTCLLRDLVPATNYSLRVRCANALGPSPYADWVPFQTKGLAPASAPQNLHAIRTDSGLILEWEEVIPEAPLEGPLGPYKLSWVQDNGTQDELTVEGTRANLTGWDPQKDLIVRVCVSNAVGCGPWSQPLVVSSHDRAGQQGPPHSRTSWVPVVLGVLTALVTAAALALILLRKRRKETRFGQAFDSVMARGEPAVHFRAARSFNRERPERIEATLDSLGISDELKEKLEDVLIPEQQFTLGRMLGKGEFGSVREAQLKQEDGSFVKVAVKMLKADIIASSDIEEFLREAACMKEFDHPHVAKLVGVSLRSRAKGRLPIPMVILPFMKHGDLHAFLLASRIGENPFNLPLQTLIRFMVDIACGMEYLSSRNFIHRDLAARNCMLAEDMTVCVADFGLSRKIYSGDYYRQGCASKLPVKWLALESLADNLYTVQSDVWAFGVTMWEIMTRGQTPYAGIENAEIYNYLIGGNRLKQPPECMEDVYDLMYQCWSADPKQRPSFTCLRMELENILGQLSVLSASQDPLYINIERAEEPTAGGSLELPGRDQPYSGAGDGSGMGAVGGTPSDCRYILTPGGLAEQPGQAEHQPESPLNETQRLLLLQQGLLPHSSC
T5 sequence (Q12852 whole entry): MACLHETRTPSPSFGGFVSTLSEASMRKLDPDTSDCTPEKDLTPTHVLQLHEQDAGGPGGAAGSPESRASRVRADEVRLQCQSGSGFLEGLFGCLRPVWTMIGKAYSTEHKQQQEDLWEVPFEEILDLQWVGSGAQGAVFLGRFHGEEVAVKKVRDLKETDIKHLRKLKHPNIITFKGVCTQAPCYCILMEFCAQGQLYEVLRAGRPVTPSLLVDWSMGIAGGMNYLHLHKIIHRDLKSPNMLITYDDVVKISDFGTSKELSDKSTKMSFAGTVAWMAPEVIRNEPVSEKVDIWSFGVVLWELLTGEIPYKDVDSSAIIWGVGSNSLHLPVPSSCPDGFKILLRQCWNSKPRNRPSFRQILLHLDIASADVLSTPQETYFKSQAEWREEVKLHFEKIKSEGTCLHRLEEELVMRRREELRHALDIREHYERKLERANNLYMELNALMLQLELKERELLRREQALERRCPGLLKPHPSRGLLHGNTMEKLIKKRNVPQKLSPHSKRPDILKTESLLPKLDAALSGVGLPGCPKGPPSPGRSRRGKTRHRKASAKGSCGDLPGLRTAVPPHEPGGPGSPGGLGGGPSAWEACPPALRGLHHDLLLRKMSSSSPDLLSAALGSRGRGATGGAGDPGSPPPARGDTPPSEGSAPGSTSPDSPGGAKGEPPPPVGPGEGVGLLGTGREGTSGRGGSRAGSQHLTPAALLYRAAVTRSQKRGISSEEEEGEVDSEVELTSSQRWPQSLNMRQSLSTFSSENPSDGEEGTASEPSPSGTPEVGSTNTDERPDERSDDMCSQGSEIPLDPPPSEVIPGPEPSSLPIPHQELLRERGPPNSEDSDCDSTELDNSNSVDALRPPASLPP
T10 sequence (P06241 whole entry): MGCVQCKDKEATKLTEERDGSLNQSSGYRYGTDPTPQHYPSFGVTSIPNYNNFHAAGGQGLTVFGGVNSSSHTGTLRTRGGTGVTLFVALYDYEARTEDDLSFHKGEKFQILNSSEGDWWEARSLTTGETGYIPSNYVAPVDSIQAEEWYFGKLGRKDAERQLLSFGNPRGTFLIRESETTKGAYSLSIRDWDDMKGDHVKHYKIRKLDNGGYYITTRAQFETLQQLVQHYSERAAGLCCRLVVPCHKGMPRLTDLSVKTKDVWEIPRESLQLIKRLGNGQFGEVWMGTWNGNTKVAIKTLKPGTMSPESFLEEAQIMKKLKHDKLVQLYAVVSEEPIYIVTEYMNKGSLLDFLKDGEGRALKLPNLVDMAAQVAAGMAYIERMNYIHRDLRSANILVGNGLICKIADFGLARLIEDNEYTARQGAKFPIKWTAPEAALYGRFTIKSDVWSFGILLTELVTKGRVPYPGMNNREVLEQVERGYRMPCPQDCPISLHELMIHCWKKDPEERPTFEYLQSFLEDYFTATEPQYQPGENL
T7 sequence (Q86YV6 whole entry): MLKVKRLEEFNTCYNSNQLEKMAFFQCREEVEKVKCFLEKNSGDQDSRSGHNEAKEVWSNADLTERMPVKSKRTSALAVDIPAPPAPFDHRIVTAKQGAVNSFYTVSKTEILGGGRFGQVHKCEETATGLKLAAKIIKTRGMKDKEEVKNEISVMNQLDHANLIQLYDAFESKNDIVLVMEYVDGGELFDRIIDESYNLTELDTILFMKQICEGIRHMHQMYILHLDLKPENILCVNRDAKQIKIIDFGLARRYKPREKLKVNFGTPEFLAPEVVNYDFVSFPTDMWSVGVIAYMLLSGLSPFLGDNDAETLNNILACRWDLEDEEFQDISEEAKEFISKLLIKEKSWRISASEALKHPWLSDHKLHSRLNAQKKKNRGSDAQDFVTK
ERK3, sequence (Q16659 whole entry): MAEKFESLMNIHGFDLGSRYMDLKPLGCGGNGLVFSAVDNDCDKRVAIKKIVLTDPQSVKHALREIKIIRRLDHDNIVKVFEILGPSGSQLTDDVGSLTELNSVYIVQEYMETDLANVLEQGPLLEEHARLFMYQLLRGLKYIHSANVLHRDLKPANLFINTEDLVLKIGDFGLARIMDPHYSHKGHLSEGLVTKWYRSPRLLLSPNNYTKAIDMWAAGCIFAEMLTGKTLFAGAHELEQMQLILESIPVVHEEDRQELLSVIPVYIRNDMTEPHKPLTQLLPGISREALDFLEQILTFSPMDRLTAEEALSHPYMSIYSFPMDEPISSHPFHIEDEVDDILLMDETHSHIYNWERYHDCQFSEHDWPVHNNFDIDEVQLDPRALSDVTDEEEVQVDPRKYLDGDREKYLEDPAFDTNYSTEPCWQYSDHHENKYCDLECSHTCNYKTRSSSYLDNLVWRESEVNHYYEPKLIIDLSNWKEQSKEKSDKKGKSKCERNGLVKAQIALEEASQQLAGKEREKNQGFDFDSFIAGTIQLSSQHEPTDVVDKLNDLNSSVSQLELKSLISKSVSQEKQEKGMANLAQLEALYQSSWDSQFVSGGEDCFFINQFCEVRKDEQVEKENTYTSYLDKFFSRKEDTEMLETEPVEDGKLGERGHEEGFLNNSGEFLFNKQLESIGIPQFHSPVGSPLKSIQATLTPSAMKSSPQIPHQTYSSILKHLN
PIK3CA, sequence (P42336 whole entry): as the sequence (P42336 whole entry E545A) above, with A545E counted along it
ERK2, sequence (P28482 whole entry): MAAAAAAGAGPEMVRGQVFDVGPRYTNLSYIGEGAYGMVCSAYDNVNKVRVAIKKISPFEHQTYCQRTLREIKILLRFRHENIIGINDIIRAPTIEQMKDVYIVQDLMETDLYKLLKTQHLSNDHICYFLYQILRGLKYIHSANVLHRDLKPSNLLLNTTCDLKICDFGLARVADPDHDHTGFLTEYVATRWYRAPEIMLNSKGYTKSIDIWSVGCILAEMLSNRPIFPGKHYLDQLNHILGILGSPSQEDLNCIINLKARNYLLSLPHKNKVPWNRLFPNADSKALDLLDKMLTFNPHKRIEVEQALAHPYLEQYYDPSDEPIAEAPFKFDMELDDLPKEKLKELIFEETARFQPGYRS

## C=CC(=O)Nc1ccc(OC)c(Nc2cc(-c3[nH]c(CC)nc3-c3cccc(NC(=O)c4cccc5c4NC(=O)c4ccccc4N5)c3)ccn2)c1 [Compound 4]
[1]
  POC: 84% of control
[2]
  POC: 6.5% of control
[3]
  suppression of EGFR pY1068 phosphorylation: analogous suppression of EGFR pY1068 phosphorylation
[4]
  suppression of EGFR pY1068 phosphorylation: analogous suppression of EGFR pY1068 phosphorylation
[5]
  suppression of EGFR pY1068 phosphorylation: analogous suppression of EGFR pY1068 phosphorylation
[6]
  POC: 88% of control
[7]
  POC: 5% of control
[8]
  POC: 88% of control
[9]
  POC: 92% of control
[10]
  POC: 100% of control
[11]
  POC: 100% of control
[12]
  POC: 22% of control
[13]
  POC: 100% of control
[14]
  POC: 70% of control
[15]
  POC: 89% of control
[16]
  POC: 100% of control
[17]
  POC: 100% of control
[18]
  POC: 100% of control
[19]
  POC: 14% of control
[20]
  POC: 95% of control
[21]
  POC: 84% of control
[22]
  POC: 94% of control
[23]
  POC: 96% of control
[24]
  POC: 84% of control
[25]
  POC: 64% of control
[26]
  POC: 32% of control
[27]
  POC: 91% of control
[28]
  POC: 96% of control
[29]
  POC: 63% of control
[30]
  POC: 100% of control
